Test results reported in ChEMBL document CHEMBL1201862, “PubChem BioAssay data set” (2004).
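A five-concentration, 48-hour dose response in 96-well plates underlies each endpoint, interpolated linearly between surrounding concentrations. GI50: concentration for 50% inhibition of growth.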 The source made the active and inactive calls. Cut-off read from the data, not from the text of the source: active = GI50 up to about 1.1 µM and inactive = higher.

Tests used:
Experiment in all cases: growth of human tumour cells (NCI), 48 h
CCRF-CEM = test system: CCRF-CEM
SF-268 = test system: SF-268
SNB-19 = test system: SNB-19
IGROV-1 = test system: IGROV-1
KM12 = test system: KM12
A498 = test system: A498
OVCAR-5 = test system: OVCAR-5
MDA-N = test system: MDA-N
OVCAR-8 = test system: OVCAR-8
OVCAR-3 = test system: OVCAR-3
RPMI-8226 = test system: RPMI-8226
NCI-H23 = test system: NCI-H23
HOP-18 = test system: HOP-18
DLD-1 = test system: DLD-1
786-0 = test system: 786-0
NCI-H226 = test system: NCI-H226
MCF7 = test system: MCF7
HCT-116 = test system: HCT-116
HOP-92 = test system: HOP-92
Hs-578T = test system: Hs-578T

Measured: GI50

O=C(NCCCCCCNC(=O)n1cc(F)c(=O)[nH]c1=O)NCCCOCCOCCOCCOCCOCCOCCOCCOCCOCCOCCOCCOCCOCCOCCOCCOCCOCCOCCOCCOCCOCCCNC(=O)C(O)C(O)C(O)C(O)CO (stereo not drawn)
inactive: CCRF-CEM 43.9 µM | SF-268 55.5 µM | SNB-19 84.7 µM | IGROV-1 60.1 µM | KM12 31.7 µM | A498 6.95 µM | OVCAR-5 > 96.4 µM | MDA-N 33.9 µM | OVCAR-8 39.2 µM | OVCAR-3 55.5 µM | RPMI-8226 5.85 µM | NCI-H23 32.8 µM | HOP-18 > 100 µM | DLD-1 9.33 µM | 786-0 26.6 µM | NCI-H226 > 100 µM | MCF7 4.72 µM | HCT-116 9.57 µM | HOP-92 > 18.4 µM | Hs-578T 61.8 µM

CCOC(=O)C12C(C(=O)OC)=C(C)N(NC(=O)Nc3ccccc3)C1(N)N(NC(=O)Nc1ccccc1)C(C)=C2C(=O)OC (stereo not drawn)
inactive: CCRF-CEM 23.7 µM | SF-268 31.3 µM | SNB-19 29.4 µM | IGROV-1 41.2 µM | KM12 19.2 µM | A498 30.1 µM | OVCAR-5 38.5 µM | OVCAR-8 27.7 µM | OVCAR-3 22.9 µM | RPMI-8226 25.9 µM | NCI-H23 37.4 µM | HOP-18 32.9 µM | DLD-1 41.5 µM | 786-0 39.5 µM | NCI-H226 > 100 µM | HCT-116 25.3 µM | HOP-92 24.9 µM

CCCOC(=O)C1CCC(=O)N1C(=O)C(Cl)Cl (stereo not drawn)
inactive: CCRF-CEM > 100 µM | SF-268 > 100 µM | SNB-19 > 100 µM | IGROV-1 > 100 µM | KM12 > 100 µM | A498 > 100 µM | OVCAR-5 > 100 µM | OVCAR-8 > 100 µM | OVCAR-3 > 100 µM | RPMI-8226 > 100 µM | NCI-H23 > 100 µM | HOP-18 > 100 µM | DLD-1 > 100 µM | 786-0 > 100 µM | NCI-H226 > 100 µM | HCT-116 > 100 µM | HOP-92 > 100 µM

COC(=O)[C@@]12C(=O)CCC(=O)C1C1C(=CC2C)O[C@@H]2OC3(CCCCC3)O[C@H]12 (stereo partly drawn)
inactive: CCRF-CEM 29.9 µM | SF-268 > 91.2 µM | SNB-19 > 89.5 µM | IGROV-1 > 94.6 µM | KM12 64.1 µM | A498 > 100 µM | OVCAR-5 > 100 µM | OVCAR-8 42.2 µM | OVCAR-3 34.8 µM | RPMI-8226 19 µM | NCI-H23 > 72.4 µM | HOP-18 > 64.3 µM | DLD-1 58.3 µM | 786-0 > 83.6 µM | NCI-H226 > 100 µM | HCT-116 43.8 µM | HOP-92 40.5 µM

Cc1cc(Cl)ccc1N1C(=O)C(=O)C(c2nc3ccccc3s2)/C(=N\NC(=O)c2ccccc2O)C1=O (stereo not drawn)
inactive: CCRF-CEM > 100 µM | SF-268 > 100 µM | SNB-19 > 100 µM | IGROV-1 > 100 µM | KM12 > 100 µM | A498 > 100 µM | OVCAR-5 > 100 µM | OVCAR-8 > 100 µM | OVCAR-3 > 100 µM | RPMI-8226 > 100 µM | NCI-H23 > 100 µM | HOP-18 > 100 µM | DLD-1 > 100 µM | 786-0 > 100 µM | NCI-H226 > 100 µM | HCT-116 > 100 µM | HOP-92 46.7 µM
